Where a name gives a salt, the structure may show the parent alone. Read-outs that look alike come from different tables or passages of the source.
Tests used:
MELK = MELK (Homo sapiens, UniProt Q14680); assay: Kinase assay: MELK activity, phosphorylation of FITC-labeled histone H3 peptide measured by IMAP fluorescence polarization; format: biochemical; conditions: MELK kinase assay, IMAP fluorescence polarization, 50 micro-M ATP; read-out: IC50 (μM) (kinase assay)
Outline: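 Fluorescence polarization was measured 0.5 h (room temperature) after quenching with threefold volume of progressive binding solution. Test compounds from 12.5 mM DMSO stocks were assayed at 1% DMSO.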

T47D cells = assay: Cell-based assay: anti-proliferative activity, Cell Counting Kit-8, 72 hours (T47D)
Outline: (§1)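 Proliferation read with Cell Counting Kit-8 after 72 hours of inhibitor treatment, from seeding of 2,000–3,000 cells/well. Lines: T47D, A549, BT-549; HT-1197, lacking MELK by western blot, served as negative control. IC50 derived.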

A549 cells = assay: Cell-based assay: anti-proliferative activity, Cell Counting Kit-8, 72 hours (A549); conditions: 72 hours
Outline: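 A549 cells were seeded in 96-well plates and exposed to candidate inhibitors for 72 hours. Cell growth was then measured with Cell Counting Kit-8, and IC50 values were calculated from the resulting growth data.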

HT-1197 cells = assay: Cell-based assay: anti-proliferative activity, Cell Counting Kit-8, 72 hours (HT-1197, negative control without MELK expression); conditions: HT1197 cells (negative control), 72 hours
Outline: as §1

22Rv1 cells = assay: Cell-based assay: anti-proliferative activity, Cell Counting Kit-8, 72 hours (22Rv1)
DU4475 cells = assay: Cell-based assay: anti-proliferative activity, Cell Counting Kit-8, 72 hours (DU4475)

Chain of MELK (Q14680 whole entry, looked up): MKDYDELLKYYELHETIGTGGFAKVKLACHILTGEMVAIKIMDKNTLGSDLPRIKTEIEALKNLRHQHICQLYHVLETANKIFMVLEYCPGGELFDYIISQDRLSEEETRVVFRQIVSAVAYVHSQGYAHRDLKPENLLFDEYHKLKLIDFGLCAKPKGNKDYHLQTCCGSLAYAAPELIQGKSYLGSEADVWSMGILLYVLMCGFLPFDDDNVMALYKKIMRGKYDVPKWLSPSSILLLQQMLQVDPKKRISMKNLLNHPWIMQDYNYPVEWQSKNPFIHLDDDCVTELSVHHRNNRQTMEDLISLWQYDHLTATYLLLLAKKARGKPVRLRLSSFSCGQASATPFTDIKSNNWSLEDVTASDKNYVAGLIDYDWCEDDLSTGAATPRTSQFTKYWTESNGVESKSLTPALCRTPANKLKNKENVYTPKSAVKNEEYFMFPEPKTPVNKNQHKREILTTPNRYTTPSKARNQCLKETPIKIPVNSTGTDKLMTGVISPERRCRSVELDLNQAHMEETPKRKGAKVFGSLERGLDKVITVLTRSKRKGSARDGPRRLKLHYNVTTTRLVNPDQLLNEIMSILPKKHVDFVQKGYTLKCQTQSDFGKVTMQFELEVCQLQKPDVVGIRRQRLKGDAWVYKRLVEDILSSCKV

Structure (SMILES)	IC50 (MELK) [µM]	IC50 (T47D cells; Homo sapiens, T47D, 72 h) [µM]	IC50 (A549 cells; Homo sapiens, A549, 72 h) [µM]	IC50 (HT-1197 cells; Homo sapiens, HT1197, 72 h) [µM]	IC50 (22Rv1 cells; Homo sapiens) [µM]	IC50 (DU4475 cells; Homo sapiens, DU-4475) [µM]	IC50 (T47D cells; 72 hours) [µM]	IC50 (A549 cells) [µM]	IC50 (HT-1197 cells) [µM]	IC50 (22Rv1 cells) [µM]	IC50 (DU4475 cells) [µM]
COc1cc(-c2ccc3ncc(C(=O)C4CCCC4)c(Nc4cccc(CCN5CCCC5)c4)c3c2)cc(Cl)c1O [Example 924, (6-(3-chloro-4-hydroxy-5-methoxy-phenyl)-4-((3-(2-(pyrrolidin-1-yl)ethyl)phenyl)amino)quinolin-3-yl) (cyclopentyl)methanone hydrochloride]	0.018	3.2	3.7	3.3	3	1.8	–	–	–	–	–
CC(=O)c1cnc2ccc(-c3cc(Cl)c(O)c(Cl)c3)cc2c1N[C@H]1CC[C@H](NC(=O)[C@H](C)N)CC1 [Example 886]	0.00066	0.045	0.64	11	0.088	0.016	–	–	–	–	–
CN1CCC(n2cc(Nc3c(S(C)(=O)=O)cnc4ccc(-c5cc(Cl)c(O)c(Cl)c5)cc34)cn2)CC1 [Example 899, 2,6-dichloro-4-(4-((1-(1-methyl-piperidin-4-yl)-1H-pyrazol-4-yl)amino)-3-(methylsulfonyl)quinolin-6-yl)phenol hydrochloride]	0.0017	1.6	4	10	1.5	0.26	–	–	–	–	–
CC(=O)c1cnc2ccc(-c3cc(F)c(O)c(Cl)c3)cc2c1N[C@H]1CC[C@H](C(=O)N(C)C)CC1 [Example 870, (1r,4r)-4-((3-acetyl-6-(3-chloro-5-fluoro-4-hydroxyphenyl)quinolin-4-yl)amino)-N,N-dimethylcyclohexanecarboxamide hydrochloride]	0.035	–	–	–	–	–	0.53	1.6	3.5	2.3	2.1
CC(=O)c1cnc2ccc(-c3cc(Cl)c(O)c(Cl)c3)cc2c1N[C@H]1CC[C@H](NC(=O)[C@@H]2CCCN2)CC1 [Example 920, (S)—N-((1R,4S)-4-(3-acetyl-6-(3,5-dichloro-4-hydroxyphenyl)quinolin-4-ylamino)cyclohexyl)pyrrolidine-2-carboxamide]	0.0019	0.1	0.86	6.5	0.34	0.073	–	–	–	–	–
CC(=O)c1cnc2cc(F)c(-c3cc(F)c(O)c(Cl)c3)cc2c1N[C@H]1CC[C@H](CN2CCCC2)CC1 [Example 925, 1-(6-(3-chloro-5-fluoro-4-hydroxy-phenyl)-7-fluoro-4-((1R,4R)-4-(pyrrolidin-1-ylmethyl)cyclohexyl)amino)quinolin-3-yl)ethanone hydrochloride]	0.019	0.52	0.38	1.5	0.27	0.27	–	–	–	–	–
CC(=O)c1cnc2ccc(-c3cc(Cl)c(O)c(Cl)c3)cc2c1N[C@H]1CC[C@H](NC(=O)C2CCCN2C)CC1 (stereo partly drawn) [Example 875, N-(1R,4R)-4-((3-acetyl-6-(3,5-dichloro-4-hydroxyphenyl)quinolin-4-yl)amino)cyclohexyl)-1-methylpyrrolidine-2-carboxamide hydrochloride]	0.0035	0.14	0.24	4.4	0.29	0.21	–	–	–	–	–
CN(C)C[C@H]1CC[C@H](Nc2c(C(=O)C(C)(C)C)cnc3ccc(-c4cc(F)c(O)c(Cl)c4)cc23)CC1 [Example 919, 1-(6-(3-chloro-5-fluoro-4-hydroxy-phenyl)-4-((1R,4R)-4-((dimethylamino)methyl)cyclohexyl)amino)quinolin-3-yl)-2,2-dimethylpropan-1-one hydrochloride]	0.034	1.9	4.3	6.4	3.5	2.5	–	–	–	–	–
CC(=O)c1cnc2ccc(-c3cc(Cl)c(O)c(Cl)c3)cc2c1Nc1cnc(C)c(CCN2CCCC2)c1 [Example 871, 1-(6-(3,5-dichloro-4-hydroxyphenyl)-4-((6-methyl-5-(2-(pyrrolidin-1-yl)ethyl)pyridin-3-yl)amino)quinolin-3-yl)ethanone]	0.0028	1.8	0.4	25	0.82	0.33	–	–	–	–	–
CC(=O)c1cnc2ccc(-c3ccc4nc[nH]c4c3)cc2c1Nc1ccc(N2CCN(C)CC2)nc1 [Example 901, 1-(6-(1H-benzo[d]imidazol-6-yl)-4-((6-(4-methylpiperazin-1-yl)pyridin-3-yl)amino)quinolin-3-yl)ethanone hydrochloride]	0.1	1.2	2.3	9.1	2.1	9.5	–	–	–	–	–

— patent publication US9120749B2, “Quinoline derivatives and MELK inhibitors containing the same” (ONCOTHERAPY SCIENCE, INC., priority 2010, dated 2015)
